Data from patent US20080200454A1, “CARBON-LINKED TETRAHYDRO-PYRAZOLO-PYRIDINE MODULATORS OF CATHEPSIN S” (priority 2007, published 2008).

The molecules below were run against Recombinant human cathepsin S (CatS) (Homo sapiens, UniProt P25774) (assay: Recombinant human cathepsin S (CatS) inhibition assay, fluorogenic substrate Z-Valine-Valine-Arginine-AMC). Settings: not given.
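Further: Baculovirus-expressed CatS in pH 5.0 sodium acetate buffer with DTT and NaCl, fluorescence read each minute over 20 min, inhibition derived from rate slope.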

Recombinant human cathepsin S (CatS), sequence (P25774 115-331): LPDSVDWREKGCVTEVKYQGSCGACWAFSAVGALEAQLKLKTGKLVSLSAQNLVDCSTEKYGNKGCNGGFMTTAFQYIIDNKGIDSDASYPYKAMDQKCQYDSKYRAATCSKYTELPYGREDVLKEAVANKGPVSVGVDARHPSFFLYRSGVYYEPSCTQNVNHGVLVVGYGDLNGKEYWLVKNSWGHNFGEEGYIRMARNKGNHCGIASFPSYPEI

Compound	IC50
COC(=O)CNCc1cc(C#Cc2cc(-c3nn(CCCN4CCOC[C@@H]4C)c4c3CN(C(=O)C(N)=O)CC4)ccc2Cl)ccc1Cl [Example 294, Methyl N-[(5-{[5-(5-[amino(oxo)acetyl]-1-{3-[(3S)-3-methylmorpholin-4-yl]propyl}-4,5,6,7-tetrahydro-1H-pyrazolo[4,3-c]pyridin-3-yl)-2-chlorophenyl]ethynyl}-2-chlorophenyl)methyl]glycinate]	20 nM
CC(=O)NC1CCN(CC(O)Cn2nc(-c3ccc(Cl)c(C#Cc4ccc(CNCc5ccc(Cl)cc5)cc4)c3)c3c2CCN(S(C)(=O)=O)C3)CC1 (stereo not drawn) [Example 362, N-(1-{3-[3-(4-Chloro-3-{[4-({[(4-chlorophenyl)methyl]amino}methyl)phenyl]ethynyl}phenyl)-5-(methylsulfonyl)-4,5,6,7-tetrahydro-1H-pyrazolo[4,3-c]pyridin-1-yl]-2-hydroxypropyl}piperidin-4-yl)acetamide]	50 nM
Cc1ccccc1S(=O)(=O)NCCCc1cc(-c2nn(CCCN3CCC(N4CCCC4=O)CC3)c3c2CN(S(C)(=O)=O)CC3)ccc1Cl [Example 94, N-{3-[2-Chloro-5-(5-methanesulfonyl-1-{3-[4-(2-oxo-pyrrolidin-1-yl)-piperidin-1-yl]-propyl}-4,5,6,7-tetrahydro-1H-pyrazolo[4,3-c]pyridin-3-yl)-phenyl]-propyl}-2-methyl-benzenesulfonamide]	1100 nM
CS(=O)(=O)N1CCc2c(c(-c3ccc(Cl)c(C#Cc4ccc(CNCc5ccc(Cl)cc5)cc4)c3)nn2CCCN2CCC(C(N)=O)CC2)C1 [Example 350, 1-{3-[3-(4-Chloro-3-{[4-({[(4-chlorophenyl)methyl]amino}methyl)phenyl]ethynyl}phenyl)-5-(methylsulfonyl)-4,5,6,7-tetrahydro-1H-pyrazolo[4,3-c]pyridin-1-yl]propyl}piperidine-4-carboxamide]	40 nM
CS(=O)(=O)N1CCc2c(c(-c3ccc(Cl)c(CCc4ccc(Oc5ccccc5)cc4)c3)nn2CCCN2CCOCC2)C1 [Example 55, 3-{4-Chloro-3-[2-(4-phenoxy-phenyl)-ethyl]-phenyl}-5-methanesulfonyl-1-(3-morpholin-4-yl-propyl)-4,5,6,7-tetrahydro-1H-pyrazolo[4,3-c]pyridine]	1070 nM
CS(=O)(=O)N1CCc2c(c(-c3ccc(Cl)c(CCCc4ccccc4)c3)nn2CCCN2CCOCC2)C1 [Example 63, 3-[4-Chloro-3-(3-phenyl-propyl)-phenyl]-5-methanesulfonyl-1-(3-morpholin-4-yl-propyl)-4,5,6,7-tetrahydro-1H-pyrazolo[4,3-c]pyridine]	1400 nM
CN(C)S(=O)(=O)NCCCc1cc(-c2nn(CCCN3CCOCC3)c3c2CN(S(C)(=O)=O)CC3)ccc1Cl [Example 86]	13000 nM
CS(=O)(=O)N1CCc2c(c(-c3ccc(Cl)c(CCCO)c3)nn2CCCN2CCC(N3CCCC3=O)CC2)C1 [Example 313, 1-[1-(3-{3-[4-Chloro-3-(3-hydroxypropyl)phenyl]-5-(methylsulfonyl)-4,5,6,7-tetrahydro-1H-pyrazolo[4,3-c]pyridin-1-yl}propyl)piperidin-4-yl]pyrrolidin-2-one]	1960 nM
CS(=O)(=O)N1CCc2c(c(-c3ccc(Cl)c(C#Cc4ccc(CNC5CCCc6ccccc65)cc4)c3)nn2CCCN2CCN(c3ccccn3)CC2)C1 (stereo in doubt) [Example 215, (1R)—N-({4-[(2-Chloro-5-{5-(methylsulfonyl)-1-[3-(4-pyridin-2-ylpiperazin-1-yl)propyl]-4,5,6,7-tetrahydro-1H-pyrazolo[4,3-c]pyridin-3-yl}phenyl)ethynyl]phenyl}methyl)-1,2,3,4-tetrahydronaphthalen-1-amine]	30 nM
CC1COCCN1C[C@H](O)Cn1nc(-c2ccc(Cl)c(C#Cc3ccc(CNCc4ccc(Cl)cc4)cc3)c2)c2c1CCN(S(C)(=O)=O)C2 (stereo in doubt) [Example 266, (2S)-1-[3-(4-Chloro-3-{4-[(4-chloro-benzylamino)-methyl]-phenylethynyl}-phenyl)-5-methanesulfonyl-4,5,6,7-tetrahydro-pyrazolo[4,3-c]pyridin-1-yl]-3-((3S)-3-methyl-morpholin-4-yl)-propan-2-ol]	350 nM
CS(=O)(=O)N1CCc2c(c(-c3ccc(Cl)c(C#Cc4cccc(CNCc5ccccc5)c4)c3)nn2CCCN2CCOCC2)C1 [Example 379, 1-[3-({2-Chloro-5-[5-(methylsulfonyl)-1-(3-morpholin-4-ylpropyl)-4,5,6,7-tetrahydro-1H-pyrazolo[4,3-c]pyridin-3-yl]phenyl}ethynyl)phenyl]-N-(phenylmethyl)methanamine]	290 nM
CS(=O)(=O)N1CCc2c(c(-c3ccc(Cl)c(CCCN4CCCCC4)c3)nn2CCCN2CCC(N3CCCC3=O)CC2)C1 [Example 102, 1-[1-(3-{3-[4-Chloro-3-(3-piperidin-1-yl-propyl)-phenyl]-5-methanesulfonyl-4,5,6,7-tetrahydro-pyrazolo[4,3-c]pyridin-1-yl}-propyl)-piperidin-4-yl]-pyrrolidin-2-one]	840 nM
CC(C)(C)OC(=O)N1CCc2cc(C#Cc3cc(-c4nn(CCCN5CCOCC5)c5c4CN(S(C)(=O)=O)CC5)ccc3Cl)ccc2C1=O [Example 525, 1,1-Dimethylethyl 6-({2-chloro-5-[5-(methylsulfonyl)-1-(3-morpholin-4-ylpropyl)-4,5,6,7-tetrahydro-1H-pyrazolo[4,3-c]pyridin-3-yl]phenyl}ethynyl)-1-oxo-3,4-dihydroisoquinoline-2(1H)-carboxylate]	350 nM
CC(C)(C)OC(=O)N1CCc2ccc(C#Cc3cc(-c4nn(CC(O)CN5CCC(C(N)=O)CC5)c5c4CN(S(C)(=O)=O)CC5)ccc3Cl)cc2C1 (stereo not drawn) [Example 373, 1,1-Dimethylethyl 7-({5-[1-{3-[4-(aminocarbonyl)piperidin-1-yl]-2-hydroxypropyl}-5-(methylsulfonyl)-4,5,6,7-tetrahydro-1H-pyrazolo[4,3-c]pyridin-3-yl]-2-chlorophenyl}ethynyl)-3,4-dihydroisoquinoline-2(1H)-carboxylate]	170 nM
NC(=O)N1CCc2c(c(-c3ccc(Cl)c(C#Cc4ccc(Cl)c(CNCc5ccccc5)c4)c3)nn2CCCN2CCSCC2)C1 [Example 291, 3-{4-Chloro-3-[(4-chloro-3-{[(phenylmethyl)amino]methyl}phenyl)ethynyl]phenyl}-1-(3-thiomorpholin-4-ylpropyl)-1,4,6,7-tetrahydro-5H-pyrazolo[4,3-c]pyridine-5-carboxamide]	30 nM
CNCCCNC(=O)c1ccc(C#Cc2cc(-c3nn(CCCN4CCOC[C@@H]4C)c4c3CN(C(=O)C(N)=O)CC4)ccc2Cl)cc1 [Example 613, 4-{[5-(5-[Amino(oxo)acetyl]-1-{3-[(3S)-3-methylmorpholin-4-yl]propyl}-4,5,6,7-tetrahydro-1H-pyrazolo[4,3-c]pyridin-3-yl)-2-chlorophenyl]ethynyl}-N-[3-(methylamino)propyl]benzamide]	40 nM

Same assay, conditions: CatS IC50

Compound	IC50
CC1COCCN1CCCn1nc(-c2ccc(Cl)c(C#Cc3ccc(Cl)c(CNCc4ccccc4)c3)c2)c2c1CCN(C(N)=O)C2 (stereo in doubt) [Example 224, 3-{4-Chloro-3-[(4-chloro-3-{[(phenylmethyl)amino]methyl}phenyl)ethynyl]phenyl}-1-{3-[(3S)-3-methylmorpholin-4-yl]propyl}-1,4,6,7-tetrahydro-5H-pyrazolo[4,3-c]pyridine-5-carboxamide]	20 nM
CC(C)CNCc1ccc(C#Cc2cc(-c3nn(CCCN4CCOCC4)c4c3CN(S(C)(=O)=O)CC4)ccc2Cl)cc1 [Example 318, N-{[4-({2-Chloro-5-[5-(methylsulfonyl)-1-(3-morpholin-4-ylpropyl)-4,5,6,7-tetrahydro-1H-pyrazolo[4,3-c]pyridin-3-yl]phenyl}ethynyl)phenyl]methyl}-2-methylpropan-1-amine]	1150 nM
CC(=O)N1CCC(C2CCN(C[C@H](O)Cn3nc(-c4ccc(Cl)c(CCc5ccc(Cl)cc5)c4)c4c3CCN(S(C)(=O)=O)C4)CC2)CC1 [Example 247, (2S)-1-(1′-Acetyl-4,4′-bipiperidin-1-yl)-3-[3-{4-chloro-3-[2-(4-chlorophenyl)ethyl]phenyl}-5-(methylsulfonyl)-4,5,6,7-tetrahydro-1H-pyrazolo[4,3-c]pyridin-1-yl]propan-2-ol]	70 nM
C[C@H]1COCCN1CCCn1nc(-c2ccc(Cl)c(C#Cc3ccc(Cl)c(CNCc4ccccn4)c3)c2)c2c1CCN(C(=O)C(N)=O)C2 [Example 289, 2-(3-{4-Chloro-3-[(4-chloro-3-{[(pyridin-2-ylmethyl)amino]methyl}phenyl)ethynyl]phenyl}-1-{3-[(3S)-3-methylmorpholin-4-yl]propyl}-1,4,6,7-tetrahydro-5H-pyrazolo[4,3-c]pyridin-5-yl)-2-oxoacetamide]	10 nM
C[C@H]1COCCN1CCCn1nc(-c2ccc(Cl)c(C#Cc3ccc4c(c3)CCN(C3CC3)C4)c2)c2c1CCN(S(C)(=O)=O)C2 [Example 512, 6-({2-Chloro-5-[1-{3-[(3S)-3-methylmorpholin-4-yl]propyl}-5-(methylsulfonyl)-4,5,6,7-tetrahydro-1H-pyrazolo[4,3-c]pyridin-3-yl]phenyl}ethynyl)-2-cyclopropyl-1,2,3,4-tetrahydroisoquinoline]	220 nM
CS(=O)(=O)N1CCc2c(c(-c3ccc(Cl)c(C#Cc4ccc(CNCc5ccc(Cl)cc5)cc4)c3)nn2CCCN2CCSCC2)C1 [Example 183, 1-[4-({2-Chloro-5-[5-(methylsulfonyl)-1-(3-thiomorpholin-4-ylpropyl)-4,5,6,7-tetrahydro-1H-pyrazolo[4,3-c]pyridin-3-yl]phenyl}ethynyl)phenyl]-N-[(4-chlorophenyl)methyl]methanamine]	80 nM
Cc1ccc(C#Cc2cc(-c3nn(CCCN4CCOCC4)c4c3CN(S(C)(=O)=O)CC4)ccc2Cl)cc1 [Example 29, 3-(4-Chloro-3-p-tolylethynyl-phenyl)-5-methanesulfonyl-1-(3-morpholin-4-yl-propyl)-4,5,6,7-tetrahydro-1H-pyrazolo[4,3-c]pyridine]	280 nM
CS(=O)(=O)N1CCc2c(c(-c3ccc(Cl)c(C#Cc4cccc(CN)c4)c3)nn2CCCN2CCOCC2)C1 [Example 377, 1-[3-({2-Chloro-5-[5-(methylsulfonyl)-1-(3-morpholin-4-ylpropyl)-4,5,6,7-tetrahydro-1H-pyrazolo[4,3-c]pyridin-3-yl]phenyl}ethynyl)phenyl]methanamine]	470 nM
